Eleven compounds from ChEMBL document CHEMBL5131375, “Recent Developments in the Use of Kinase Inhibitors for Management of Viral Infections” (J Med Chem, 2022) can be followed below.

The test system of series [1] is Mammarenavirus choriomeningitidis. It counts as functional. The following applies: dose 0.5-5 µM.
Series [2] in a line: in vitro. The note with it: human, hek-293t.
For series [3], the system named is Human immunodeficiency virus. The experiment in a line: Antiviral activity against HIV p24 assessed as extracellular antigen accumulation in primary macrophage at 25 uM. Type of series: functional.
Series [4] deals with Serine/threonine-protein kinase mTOR (Homo sapiens, UniProt P42345).
A short description of series [5]: in vitro. The note with it: human.
The nature of series [6]: Cytotoxicity against human HaCaT cells. Type of series: toxicity, cell-based.
A short description of series [7]: in vitro. The note with it: human, HeLa cells.
For series [8], the system named is Middle East respiratory syndrome-related coronavirus. The experiment in a line: microbe, parasite or virus in culture. It counts as functional.
Series [9] can be described thus: in vitro. The following applies: human, jurkat 6c6-du cell.
Series [10] deals with Human immunodeficiency virus. The experiment in a line: microbe, parasite or virus in culture. Type of series: functional, organism-based. The note with it: Human immunodeficiency virus 1.
A further series deals with Cytomegalovirus. Description: Antiviral activity against CMV. Type of series: functional, organism-based. The note with it: Human betaherpesvirus 5.
Series [11] can be described thus: Cytotoxicity against HSG cells. The note with it: human. It counts as toxicity, cell-based.
The subject of series [12] is Influenza A virus. The experiment in a line: microbe, parasite or virus in culture. It counts as functional, organism-based. The following applies: H1N1.
Series [13] has as its system Influenza A virus. Description: Antiviral activity against influenza pH1N1 virus. Type of series: functional, organism-based.
The nature of series [14]: Cytotoxicity against human NCI-H1666 cells. It counts as toxicity, cell-based.
Series [15] in a line: Cytotoxicity against human LN-18 cells. Type of series: toxicity, cell-based.
Series [16] relates to Human immunodeficiency virus 1. The experiment in a line: microbe, parasite or virus in culture. It counts as functional, organism-based.
Series [17] in a line: in vitro. The following applies: human, MDM cells.
The target of series [18] is Cyclin-dependent kinase 4 (Homo sapiens, UniProt P11802).
Cyclin-dependent kinase 4, sequence (P11802 whole entry): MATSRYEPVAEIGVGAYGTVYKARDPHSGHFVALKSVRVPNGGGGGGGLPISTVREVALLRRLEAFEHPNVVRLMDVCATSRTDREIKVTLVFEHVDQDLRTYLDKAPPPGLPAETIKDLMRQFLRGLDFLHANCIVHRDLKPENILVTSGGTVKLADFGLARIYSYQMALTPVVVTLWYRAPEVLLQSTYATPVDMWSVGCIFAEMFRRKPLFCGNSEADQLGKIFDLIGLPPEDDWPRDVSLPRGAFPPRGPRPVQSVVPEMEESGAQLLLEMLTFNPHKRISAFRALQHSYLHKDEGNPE
The test system of another series is Human alphaherpesvirus 3. Description: microbe, parasite or virus in culture. It counts as functional, organism-based.
Series [19] has as its system Human immunodeficiency virus 2. Description: microbe, parasite or virus in culture. Type of series: functional, organism-based.
A short description of series [20]: in vitro. The following applies: human, PBMC.
Series [21] relates to Middle East respiratory syndrome-related coronavirus. Description: microbe, parasite or virus in culture.
The subject of series [22] is Feline infectious peritonitis virus. The experiment in a line: microbe, parasite or virus in culture. The note with it: Alphacoronavirus 1.
Series [23] concerns Human coronavirus 229E. The experiment in a line: microbe, parasite or virus in culture.
The test system of the next series is Dengue virus. Description: microbe, parasite or virus in culture. The note with it: Huh-7.
In series [24] the test system is Human coronavirus 229E. The experiment in a line: microbe, parasite or virus in culture. The source holds these as a separate data set.
The subject of another series is dengue virus type 2. Description: microbe, parasite or virus in culture. It counts as functional, organism-based.
Series [25] relates to Middle East respiratory syndrome-related coronavirus. The experiment in a line: microbe, parasite or virus in culture. This is another data set of the same source.
Series [26] relates to Influenza A virus. The experiment in a line: Antiviral activity against influenza A RB1/H1N1pdm09 virus. Type of series: functional, organism-based.
Series [27] can be described thus: Cytotoxicity against human A549 cells. It counts as toxicity, cell-based.
Series [28] is described as follows: Cytotoxicity against MDCK-II cells. The following applies: dog. It counts as toxicity, cell-based, Canis lupus familiaris.
Series [29] in a line: Cytotoxicity against human MCL cells. Type of series: toxicity, cell-based.

Bounds are passed on as bounds.

For `Cn1c(=O)n(-c2ccc(C(C)(C)C#N)cc2)c2c3cc(-c4cnc5ccccc5c4)ccc3ncc21` [DACTOLISIB], the “log(activity)” value in [1] came to 2. Further, in “in vitro [2]”, the CC50 is > 5000 nM. In addition, in series [3], the Activity is on record as 83%.
Broadly, the IC50 is the concentration that inhibits the measured activity by half. A low value points to greater potency in that assay. By inhibition is commonly meant the relative decrease from the control value, in per cent. With `CO[C@H]1C[C@@H]2CC[C@@H](C)[C@@](O)(O2)C(=O)C(=O)N2CCCC[C@H]2C(=O)O[C@H]([C@H](C)C[C@@H]2CC[C@@H](OCCO)[C@H](OC)C2)CC(=O)[C@H](C)/C=C(\C)[C@@H](O)[C@@H](OC)C(=O)[C@H](C)C[C@H](C)/C=C/C=C/C=C/1C` [EVEROLIMUS], in [4], 1.6 nM corresponded to half-maximal inhibition (IC50). For the same compound, the CC50 is > 10000 nM in “in vitro [5]” (Huh-7 cells), 28300 nM in series [6] and 28300 nM in “in vitro [7]”. Moreover, in series [8], the inhibition at 10 µM came to 56%.
The term EC50 denotes the concentration at which the effect is half-maximal. High values mean weaker potency, low ones greater potency. Take `O=C(Nc1nc2cccc(-c3ccc(CN4CCS(=O)(=O)CC4)cc3)n2n1)C1CC1` [FILGOTINIB]: in the series “in vitro [9]”, the CC50 was > 10000 nM. In series [10], this compound returned an EC50 of 3100 nM.
With `Cc1oncc1C(=O)Nc1ccc(C(F)(F)F)cc1` [LEFLUNOMIDE], in the series with Cytomegalovirus, the concentration giving a half-maximal response (EC50) stood at 40000 nM. The compound further yielded a CC50 in series [11] of 20800 nM.
`NC1(c2ccc(-c3nc4ccn5c(=O)[nH]nc5c4cc3-c3ccccc3)cc2)CCC1` [MK-2206]: the IC50 with Influenza A virus [12] came out at 790 nM. Besides, the EC50 with Influenza A virus [13] was 790 nM. Moreover, the CC50 in series [14] worked out at 58500 nM.
For the compound `C1=C/COCc2cc(ccc2OCCN2CCCC2)Nc2nccc(n2)-c2cccc(c2)COC/1` [PACRITINIB], in series [15], the CC50 was > 1000 nM.
`CC(C)[C@H](CO)Nc1nc(Nc2cccc(Cl)c2)c2ncn(C(C)C)c2n1` [PURVALANOLA]: the EC50 in series [16] turned out to be 2210 nM; in the series with Human alphaherpesvirus 3 it was 1000 nM. The CC50 in the series “in vitro [17]” was 18700 nM. In [18], this compound showed an IC50 of 4 nM.
As for `N#CC[C@H](C1CCCC1)n1cc(-c2ncnc3[nH]ccc23)cn1` [RUXOLITINIB], the figures for the EC50 in [16] and in series [19] were 300 nM and 200 nM, respectively. Moreover, the CC50 in “in vitro [20]” is > 100000 nM.
As for `CN1CCN(CCOc2cc(OC3CCOCC3)c3c(Nc4c(Cl)ccc5c4OCO5)ncnc3c2)CC1` [SARACATINIB], the EC50 in [21] came to 2900 nM; in [22], 7000 nM; in the series on Human coronavirus 229E [23], 2400 nM; with Dengue virus it was 12200 nM; in the series on Human coronavirus 229E [24], 2400 nM; in the series on dengue virus type 2 it was 12200 nM. In addition, the EC50 in series [25] amounted to 2900 nM. This compound also displayed a CC50 in “in vitro [5]” (huh-7) of 74000 nM.
`CC(=O)Nc1cccc(-n2c(=O)n(C3CC3)c(=O)c3c(Nc4ccc(I)cc4F)n(C)c(=O)c(C)c32)c1` [TRAMETINIB] registered an EC50 in the series on Influenza A virus [26] of 16 nM. For the same compound, the CC50 in [27] and in series [28] was > 20000 nM throughout.
For `C=CC(=O)N1CCC([C@@H]2CCNc3c(C(N)=O)c(-c4ccc(Oc5ccccc5)cc4)nn32)CC1` [ZANUBRUTINIB], in [29], the CC50 was > 1400 nM.
